Patent publication US6207656A, “Vitamin D analogues and their neuronal effects” (Cephalon, Inc., priority 1998, dated 2001)
“Also recorded” adds a separate entry of the source.

Experiments:
[1] = Calcemic activity in rats, serum calcium after 7 days oral gavage; type: in vivo, LEW/MOL female rats; details: for Calcium in Serum: ± S.D.; for Calcemic Activity (%): potency relative to 1α,25(OH)2 D3, rats, p.o. 7 days; for calcemic classification: summary statement
Protocol: For determining calcemic activity, LEW/MOL female rats (130-170 g) were administered test compounds daily for 7 days by oral gavage. Control rats received the vehicle. Each group consisted of 3 rats. Blood was collected by cardiac puncture on day 7.

hippocampal ChAT = test: Fimbria fornix lesion model, hippocampal ChAT activity; type: in vivo, rat; details: oral gavage daily 14 days, FIGS. 4 to 8; * p<0.05 vs vehicle-treated lesioned controls
Source text: The fimbria fornix lesion model is an established protocol for assessing cholinergic neuronal survival in the basal forebrain. […] Contained within the region of the brain 10 are cholinergic neurons 16. A healthy cholinergic neuron has a cell body 18, and one or more axons 20. Each of the axons 20 have a free end, referred to as a terminal 22, that extends into the hippocampus 14. In the fimbria fornix lesion model, damaged cholinergic neurons 24 are produced by transecting a portion of the axons 20 at a location 26 between the hippocampus 14 and the cell body 18. As a result of this transection, damaged cell bodies 28 are produced that no longer have cholinergic axons 30 and terminals 32. These damaged cell bodies 28, also lose cholinergic cell body markers 34 and stop producing ChAT. The fimbria fornix lesion model is used to study methods of restoring ChAT production, such as through stimulating increased production of ChAT in the healthy cholinergic neurons, and/or through restoring normal functioning of the damaged cholinergic neurons 24.
For the studies described herein, animals were anesthetized with pentobarbital and placed in a stereotaxic apparatus. The skull was opened on the left side, a knife was positioned 1.2 mm posterior to bregma and 0.6 mm lateral to the midline. The knife was lowered to 4.5 mm below the dura into the brain and moved laterally 2 mm partially transecting the fimbria fornix. After 14 days of administration of the test compounds by oral gavage, the hippocampus was removed and homogenized.
(§1) The hippocampal ChAT activity is expressed as a percentage of the hippocampal ChAT activity of the […] control side (i.e., lesion control) in FIGS. 4 to 8.

[2] = Serum calcium in fimbria fornix lesioned rats; type: in vivo, Sprague Dawley rats; details: oral gavage daily 14 days; data not shown
Protocol: For the fimbria fornix lesion studies, serum calcium was determined by the following method. Sprague Dawley rats (200-300 g) were dosed as described below. Blood was collected from the animals after sacrifice and allowed to clot at room temperature for 3-10 minutes; cells were pelleted in a clinical centrifuge.
as §1

[3] = test system: acrylamide-induced peripheral neuropathy in rats; test: Acrylamide-induced peripheral neuropathy, landing foot spread; type: in vivo, rat
Protocol: Peripheral neuropathy was induced in rats by the administration of the neurotoxin acrylamide, 50 mg/kg, IP, 3×/week. The acrylamide treatment occurred during the first three weeks of the experiment. After acrylamide was discontinued, the animals were allowed to recover for an additional 3-5 weeks. The ability of Compound (A) or Compound (B) to either slow the onset of peripheral neuropathy, reduce the severity of the peripheral neuropathy or enhance the recovery from peripheral neuropathy was determined. The compounds were administered either orally (Compound (A)) or via subcutaneous Alzet mini-pumps (I month model)(Compounds (A) and (B)) beginning 3 days prior to the first dose of acrylamide. Compound (A) was administered orally at doses of 0.3, 1.0 and 3.0 μg/kg/day and by mini-pump at doses of 10, 55, 100, 330 and 550 ng/day. Compound (B) was administered by mini-pump at doses of 10, 33, 100, 330 and 1000 ng/day. These dose ranges were selected to limit toxicity and to bracket the dose range used in fimbria fornix lesion experiments. The mini-pumps were replaced at the end of the fourth week so that the test compound was on board for the duration of the experiment. In FIG. 11B, the data from FIG. 11A was averaged.

vitamin D receptor = target: T1, vitamin D receptor (Gallus gallus, UniProt O42392); test: Vitamin D receptor binding (displacement of 3H-1α,25(OH)2D3)
T1 sequence (O42392 1-451): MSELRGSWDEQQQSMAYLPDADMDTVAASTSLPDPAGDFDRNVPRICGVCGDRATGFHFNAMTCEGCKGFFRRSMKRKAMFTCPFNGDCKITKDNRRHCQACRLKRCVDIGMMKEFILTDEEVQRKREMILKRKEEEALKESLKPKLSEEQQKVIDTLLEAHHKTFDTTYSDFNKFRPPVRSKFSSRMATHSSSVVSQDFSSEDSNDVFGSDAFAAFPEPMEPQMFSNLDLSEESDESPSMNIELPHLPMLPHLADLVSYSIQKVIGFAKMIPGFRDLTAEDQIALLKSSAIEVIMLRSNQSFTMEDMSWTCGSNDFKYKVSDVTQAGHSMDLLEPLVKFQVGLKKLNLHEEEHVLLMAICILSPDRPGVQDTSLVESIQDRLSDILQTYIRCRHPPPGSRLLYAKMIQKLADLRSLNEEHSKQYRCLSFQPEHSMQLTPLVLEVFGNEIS
Source text: Bound and free ^3 H-1α,25(OH2)D3 were then separated on dextran-coated charcoal, samples were centrifuged and the supernatants containing the receptor-bound ^3 H-1α,25(OH2)D3 were counted in a liquid scintillation counter.

Row | SMILES | Calcium in Serum ([1]; 0.1 μg/kg/day p.o., Table 2C (vehicle 2.68 ± 0.03)) [mmol/L] | Calcium in Serum ([1]; 1.0 μg/kg/day p.o., Table 2C (vehicle 2.68 ± 0.03)) [mmol/L] | Calcium in Serum ([1]; 10 μg/kg/day p.o., Table 2C (vehicle 2.68 ± 0.03)) [mmol/L] | Calcemic Activity (%) [1] [%] | calcemic classification [1] | hippocampal ChAT activity vs lesioned controls (hippocampal ChAT) | serum calcium at doses giving the ChAT results [2] | Calcium in Serum ([1]; 0.1 μg/kg/day p.o., Table 2D (vehicle 2.51 ± 0.09)) [mmol/L] | Calcium in Serum ([1]; 5.0 μg/kg/day p.o., Table 2D (vehicle 2.51 ± 0.09)) [mmol/L] | Calcium in Serum ([1]; 10 μg/kg/day p.o., Table 2D (vehicle 2.51 ± 0.09)) [mmol/L] | development of peripheral neuropathy ([3]; continuously pumped (mini-pump)) | recovery from peripheral neuropathy ([3]; mini-pump) | return of landing foot spread to sham levels ([3]; mini-pump 10 ng/day) | landing foot spread on day 40 ([3]; mini-pump 10, 100 or 1000 ng/day (FIG. 13B)) | landing foot spread ([3]; mini-pump, recovery period) | Calcium in Serum ([1]; 10 μg/kg/day p.o., Table 2B (vehicle 2.57 ± 0.06)) [mmol/L] | Calcium in Serum ([1]; 50 μg/kg/day p.o., Table 2B (vehicle 2.57 ± 0.06)) [mmol/L] | Calcium in Serum ([1]; 100 μg/kg/day p.o., Table 2B (vehicle 2.57 ± 0.06)) [mmol/L] | Kd (vitamin D receptor) [nM]
1 | C=C1/C(=C\C=C2/CCC[C@]3(C)[C@@H]([C@@H](C)COc4cccc(C(C)(C)O)c4)CC[C@@H]23)C[C@@H](O)C[C@@H]1O [Compound (C), 1(S), 3(R)-dihydroxy-20(R)-[3-(2-hydroxy-2-propyl)-phenoxymethyl]-9,10-seco-pregna-5(Z),7(E),10(19)-triene] | 2.71 ± 0.07 | 2.66 ± 0.06 | 2.82 ± 0.05 | 8 | exemplary of low calcemic vitamin D3 analogues | significant increase in CHAT activity | low calcemic dose levels |  |  |  |  |  |  |  |  |  |  |  | 
2 | C=C1/C(=C\C=C2/CCC[C@]3(C)[C@@H]([C@H](C)CCCCC(O)(CC)CC)CC[C@@H]23)C[C@@H](O)C[C@@H]1O [Compound (D)] |  |  |  | 20 | exemplary of low calcemic vitamin D3 analogues | significant increase in CHAT activity | low calcemic dose levels | 2.59 ± 0.08 | 2.90 ± 0.06 | 3.19 ± 0.16 |  |  |  |  |  |  |  |  | 
3 | C=C1/C(=C\C=C2/CCC[C@]3(C)[C@@H]([C@@H](C)CSc4cccc(C(C)(C)O)c4)CC[C@@H]23)C[C@@H](O)C[C@@H]1O [Compound (B), 1(S),3(R)-dihydroxy-20(R)-(3-((1-hydroxy-1-methyl)ethyl)phenylthiomethyl)-9,10-seco-pregna-5(Z),7(E),10(19)-triene] |  |  |  | 1 | exemplary of low calcemic vitamin D3 analogues | significant increase in CHAT activity | low calcemic dose levels |  |  |  | did not prevent the development of the acrylamide-induced peripheral neuropathy | increased the recovery from acrylamide-induced peripheral neuropathy; also recorded: an effect upon the recovery from the lesion was apparent | returned to sham levels by day 36 | statistically significant decrease in landing foot spread | decreased landing foot spread during the recovery period | 2.51 ± 0.05 | 2.59 ± 0.02 | 2.59 ± 0.04 | 0.2
